Values joined by “and” are separate entries in the source; they are usually repeats but may differ in a detail not shown here. Equal entries are not always repeated. Where two headings read alike, the source gives them in different places.
Molecular target: T1, M1 receptor (Homo sapiens, UniProt P11229)
T1 sequence (P11229 1-460): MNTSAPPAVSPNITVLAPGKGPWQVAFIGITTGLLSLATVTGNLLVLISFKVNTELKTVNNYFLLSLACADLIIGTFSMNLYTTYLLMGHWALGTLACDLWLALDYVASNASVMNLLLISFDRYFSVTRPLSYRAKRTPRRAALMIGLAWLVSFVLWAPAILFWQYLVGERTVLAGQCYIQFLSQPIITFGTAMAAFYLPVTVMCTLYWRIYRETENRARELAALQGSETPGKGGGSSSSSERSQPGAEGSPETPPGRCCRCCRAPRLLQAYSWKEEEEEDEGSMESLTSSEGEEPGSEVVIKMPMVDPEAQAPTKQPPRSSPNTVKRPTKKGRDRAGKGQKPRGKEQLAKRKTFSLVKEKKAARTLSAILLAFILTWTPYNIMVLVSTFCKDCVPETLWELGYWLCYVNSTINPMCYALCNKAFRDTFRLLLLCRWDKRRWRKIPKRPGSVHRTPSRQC
Assay: Antagonist assay: beta-lactamase expression in carbachol-stimulated Jurkat C2 cells (CCF2/AM fluorescence read-out), mechanical vs liquid barrier

[1] = Liquid barrier (silicone oil, Dow Corning Silicone 200 Fluid 5.0 cs), cells stimulated with carbachol, 96-well plate
[2] = Mechanical barrier (polystyrene lid), cells stimulated with carbachol, 96-well plate

Percent inhibition of beta- lactamase expression in C2 cells in response to the presence of the indicated chemical [1] [%]	Percent inhibition of beta- lactamase expression in C2 cells in response to the presence of the indicated chemical [2] [%]	Molecule	Percent inhibition of beta- lactamase expression in C2 cells in response to the presence of the indicated chemical
		C[N+]12CCC(CC1)C(OC(=O)C(O)(c1ccccc1)c1ccccc1)C2 (stereo not drawn) [Clidinium]	82% and 91%
43	88	CCN(CC)C(C)CN1c2ccccc2Sc2ccccc21 (stereo not drawn) [Ethopropazine]	
90	91	C[N+]1(C)CCCC(OC(=O)C(O)(c2ccccc2)c2ccccc2)C1 (stereo not drawn) [Mepenzolate]	
95	95	CC(C)[N+](C)(CCOC(=O)C1c2ccccc2Oc2ccccc21)C(C)C [Propantheline]	
78	91	Isopropamine	
